Source: ChEMBL document CHEMBL4422680, “Synthesis, biological evaluation, and molecular docking study of novel allyl-retrochalcones as a new class of protein tyrosine phosphatase 1B inhibitors” (Bioorg Med Chem, 2019)
Calls of active or inactive are those of the source. The calls are words filed in the database; no cut-off is given here.

Tests used:
[1] = target: T1, Tyrosine-protein phosphatase non-receptor type 1 (Homo sapiens, UniProt P18031); assay: (§1) Inhibition of recombinant human PTP1B using pNPP as substrate measured after 30 mins
T1 sequence (P18031 whole entry): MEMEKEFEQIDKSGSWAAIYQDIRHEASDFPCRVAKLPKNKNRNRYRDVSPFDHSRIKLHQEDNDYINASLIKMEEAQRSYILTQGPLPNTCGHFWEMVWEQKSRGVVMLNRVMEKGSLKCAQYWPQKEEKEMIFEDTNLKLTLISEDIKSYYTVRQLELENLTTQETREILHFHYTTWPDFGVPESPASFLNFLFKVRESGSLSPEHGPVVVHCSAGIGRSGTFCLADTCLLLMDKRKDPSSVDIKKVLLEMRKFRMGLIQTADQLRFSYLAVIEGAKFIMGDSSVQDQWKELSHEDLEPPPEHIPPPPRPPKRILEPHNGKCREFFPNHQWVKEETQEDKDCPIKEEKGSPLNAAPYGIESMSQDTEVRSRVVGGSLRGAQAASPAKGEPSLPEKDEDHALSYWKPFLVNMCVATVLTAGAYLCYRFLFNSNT

[2] = target: T2, Tyrosine-protein phosphatase non-receptor type 1 (Homo sapiens) (UniProt P18031); assay: as §1
T2 sequence (whole entry): T1 sequence (P18031 whole entry)

Mus musculus [3] = assay: Protection against hyperglycemia-induced liver injury in db/db mouse assessed as reduction in size and number of liver lipid droplets at 10 to 20 mg/kg, po administered every other day for 10 weeks measured post last dose by hematoxylin and eosin staining based light microscopic analysis; format: functional, organism-based
[4] = AUC (0 to t) in Sprague-Dawley rat at 2 mg/kg, iv administered as single dose by UPLC/MS/MS analysis; format: ADME, organism-based; conditions: in vivo
[5] = AUC (0 to infinity) in Sprague-Dawley rat at 2 mg/kg, iv administered as single dose by UPLC/MS/MS analysis; format: ADME, organism-based; parameters: dose 2 mg/kg, route intravenous, time infinity; conditions: in vivo
[6] = target: T2, Tyrosine-protein phosphatase non-receptor type 1 (Homo sapiens); assay: Potency index, ratio of […] IC50 to test compound IC50 for recombinant human PTP1B
[7] = Apparent half-life of the terminal disposition phase in Sprague-Dawley rat at 20 mg/kg, ig administered as single dose by UPLC/MS/MS analysis; format: ADME, organism-based; conditions: in vivo, po, read-out: t1/2 lambda z (converted)
Mus musculus [8] = assay: Protection against hyperglycemia-induced liver injury in db/db mouse assessed as reduction in serum total cholesterol level at 10 to 20 mg/kg, po administered every other day for 10 weeks measured post last dose; format: functional, organism-based
Mus musculus [9] = assay: Protection against hyperglycemia-induced liver injury in db/db mouse assessed as reduction in serum ALT level at 10 to 20 mg/kg, po administered every other day for 10 weeks measured post last dose; format: functional, organism-based
[10] = Drug uptake in Sprague-Dawley rat at 20 mg/kg, ig administered as single dose measured after 4 hrs by UPLC/MS/MS analysis; format: ADME, organism-based; conditions: in vivo, po
[11] = Tmax in Sprague-Dawley rat at 2 mg/kg, iv administered as single dose by UPLC/MS/MS analysis; format: ADME, organism-based; conditions: in vivo
Mus musculus [12] = assay: Protection against hyperglycemia-induced liver injury in db/db mouse assessed as increase in IRS1 phosphorylation in liver at 10 to 20 mg/kg, po administered every other day for 10 weeks measured post last dose by immunoblotting analysis; format: functional, organism-based
[13] = Cmax in Sprague-Dawley rat at 20 mg/kg, ig administered as single dose by UPLC/MS/MS analysis; format: ADME, organism-based; parameters: dose 20 mg/kg, route […]; conditions: in vivo, po
[14] = AUC (0 to infinity) in Sprague-Dawley rat at 20 mg/kg, ig administered as single dose by UPLC/MS/MS analysis; format: ADME, organism-based; parameters: dose 20 mg/kg, time infinity, route […]; conditions: in vivo, po
[15] = Cmax in Sprague-Dawley rat at 2 mg/kg, iv administered as single dose by UPLC/MS/MS analysis; format: ADME, organism-based; parameters: dose 2 mg/kg, route intravenous; conditions: in vivo
[16] = Tmax in Sprague-Dawley rat at 20 mg/kg, ig administered as single dose by UPLC/MS/MS analysis; format: ADME, organism-based; conditions: in vivo, po
[17] = target: T2, Tyrosine-protein phosphatase non-receptor type 1 (Homo sapiens); assay: Inhibition of PTP1B in human HepG2 cells assessed as suppression of PA-induced insulin resistance by measuring increase in IRS1 phosphorylation at 5 uM preincubated for 1 hr followed by PA-stimulation for 24 hrs and subsequent insulin measured by immunoblotting analysis; format: cell-based
[18] = Apparent half-life of the terminal disposition phase in Sprague-Dawley rat at 2 mg/kg, iv administered as single dose by UPLC/MS/MS analysis; format: ADME, organism-based; conditions: in vivo, read-out: t1/2 lambda z (converted)
Mus musculus [19] = assay: Protection against hyperglycemia-induced liver injury in db/db mouse assessed as reduction in steatosis at 10 to 20 mg/kg, po administered every other day for 10 weeks measured post last dose by hematoxylin and eosin staining based light microscopic analysis; format: functional, organism-based
Mus musculus [20] = assay: Protection against hyperglycemia-induced liver injury in db/db mouse assessed as reduction in serum AKP level at 10 to 20 mg/kg, po administered every other day for 10 weeks measured post last dose; format: functional, organism-based
[21] = target: T2, Tyrosine-protein phosphatase non-receptor type 1 (Homo sapiens); assay: Inhibition of PTP1B in human HepG2 cells assessed as suppression of PA-induced insulin resistance by measuring increase in AKT phosphorylation at 10 uM preincubated for 1 hr followed by PA-stimulation for 24 hrs and subsequent insulin measured by immunoblotting analysis; format: cell-based
[22] = AUC (0 to t) in Sprague-Dawley rat at 20 mg/kg, ig administered as single dose by UPLC/MS/MS analysis; format: ADME, organism-based; conditions: in vivo, po

Structure (SMILES) | IC50 ([1]; read-out: IC50) | inhibition [2] | also measured
C=CCc1cc(/C=C/C(=O)c2ccc(OC)cc2O)c(OC)cc1O | 24.8 µM | Dose-dependent effect | –
C=CC(C)(C)c1cc(/C=C/C(=O)c2ccc(O)cc2)c(OC)cc1O | – | Dose-dependent effect | –
C=CCc1cc(/C=C/C(=O)c2ccc(OC(=O)c3ccc(C(C)(C)C)cc3)cc2)c(OC)cc1O | 5 µM | Dose-dependent effect | –
C=CCc1cc(/C=C/C(=O)c2ccc(N(CC=C)CC=C)cc2)c(OC)cc1O | 5.9 µM | Dose-dependent effect | –
C=CCc1cc(/C=C/C(=O)c2ccc(OCCCC(=O)OCC)cc2)c(OC)cc1O | 25.6 µM | Dose-dependent effect | –
C=CCc1cc(/C=C/C(=O)c2cccc(N(C)C)c2)c(OC)cc1O | 0.57 µM | Dose-dependent effect | Activity (Mus musculus [3]): Active; AUC(0-t) [4]: 1430 ng·h/mL; AUC(0-inf) [5]: 1620 ng·h/mL; Ratio IC50 [6]: 6; half-life [7]: 8.85 h; Activity (Mus musculus [8]): Active; Activity (Mus musculus [9]): Active; Drug uptake [10]: Active; Tmax [11]: 4.8 min; Activity (Mus musculus [12]): Active; Cmax [13]: 46.2 ng/mL; AUC [14]: 605.52 ng·h/mL; Cmax [15]: 2150 ng/mL; Tmax [16]: 14 h; inhibition [17]: Active; half-life [18]: 21.1 h; Activity (Mus musculus [19]): Active; Activity (Mus musculus [20]): Active; inhibition [21]: Active; AUC(0-t) [22]: 584 ng·h/mL
C=C(C)[C@H](C)c1cc(/C=C/C(=O)c2ccc(O)cc2)c(OC)cc1O [LICOCHALCONE E] | 4 µM | Dose-dependent effect | –
C[C@H]1[C@H](C)CC[C@]2(C(=O)O)CC[C@]3(C)C(=CC[C@@H]4[C@@]5(C)CC[C@H](O)C(C)(C)[C@@H]5CC[C@]43C)[C@H]12 | – | Dose-dependent effect | –
C=CCc1cc(/C=C/C(=O)c2cc3c(cc2N(C)C)OCO3)c(OC)cc1O | 11.8 µM | Dose-dependent effect | –
C=CCc1cc(/C=C/C(=O)c2ccc(OCC)cc2)c(OC)cc1O | 5.3 µM | Dose-dependent effect | –
C=CCOc1ccc(C(=O)/C=C/c2cc(CC=C)c(OC3CCCCO3)cc2OC)c(O)c1 (centres undefined) | – | – | IC50 [1]: Not Active
C=CCOc1ccc(C(=O)/C=C/c2cc(CC=C)c(O)cc2OC)c(O)c1 | 6.5 µM | Dose-dependent effect | –
C=CCc1cc(/C=C/C(=O)c2ccc(N3CCOCC3)cc2)c(OC)cc1O | 12.3 µM | Dose-dependent effect | –
C=CCc1cc(/C=C/C(=O)c2cccc(OC)c2)c(OC)cc1O | 14.6 µM | Dose-dependent effect | –
C=CCc1cc(/C=C/C(=O)c2cccc(N(CC=C)CC=C)c2)c(OC)cc1O | 4.7 µM | Dose-dependent effect | –
C=CCc1cc(/C=C/C(=O)c2ccc(OCC=C(C)C)cc2)c(OC)cc1O | 5.9 µM | Dose-dependent effect | –
C=CCc1cc(/C=C/C(=O)c2ccc(OC)cc2)c(OC)cc1O | 7.4 µM | Dose-dependent effect | –
C=CCc1cc(/C=C/C(=O)c2ccccc2N2CCCCC2)c(OC)cc1O | 9.5 µM | Dose-dependent effect | –
C=CCc1cc(/C=C/C(=O)c2ccc(OC(=O)c3ccccc3)cc2)c(OC)cc1O | 4.6 µM | Dose-dependent effect | –
C=CCc1cc(/C=C/C(=O)c2ccc(OCCCCC(=O)OCC)cc2)c(OC)cc1O | 3.9 µM | Dose-dependent effect | –
C=CCc1cc(/C=C/C(=O)c2ccc(OC(=O)c3ccc(Br)cc3)cc2)c(OC)cc1O | 6.6 µM | Dose-dependent effect | –
